We go through 35 molecules from patent publication US11339147B2, “Lactam compound as FXR receptor agonist” (CSPC ZHONGQI PHARMACEUTICAL TECHNOLOGY (SHIJIAZHUANG) CO., …, priority 2017, dated 2022).

pEC50: −log10 of the molar value. Read-outs that look alike come from different tables or passages of the source.

This assay addresses T1, glutathione-S-transferase-labeled FXR human protein (Homo sapiens, UniProt Q96RI1).
T1 construct: purchased Invitrogen
T1 sequence (Q96RI1 1-486): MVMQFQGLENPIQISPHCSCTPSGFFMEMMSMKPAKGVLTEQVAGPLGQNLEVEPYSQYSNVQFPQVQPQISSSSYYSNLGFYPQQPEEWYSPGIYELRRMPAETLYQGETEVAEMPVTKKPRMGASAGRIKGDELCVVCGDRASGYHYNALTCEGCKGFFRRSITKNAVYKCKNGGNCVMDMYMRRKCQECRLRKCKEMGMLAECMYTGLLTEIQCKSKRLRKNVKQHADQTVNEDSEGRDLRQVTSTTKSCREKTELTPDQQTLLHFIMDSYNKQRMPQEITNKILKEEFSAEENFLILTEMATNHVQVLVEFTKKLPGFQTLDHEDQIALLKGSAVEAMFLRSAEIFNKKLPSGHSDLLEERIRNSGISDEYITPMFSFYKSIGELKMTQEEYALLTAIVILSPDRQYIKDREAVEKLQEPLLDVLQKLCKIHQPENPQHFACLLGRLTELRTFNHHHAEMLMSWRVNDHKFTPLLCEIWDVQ
The experiment in a line: FXR biochemical experiment (alphascreen, coactivator recruitment). To be noted: for pEC50: alphascreen, activation of FXR binding reaction with steroid receptor coactivator, read-out: FXR enzyme activity EC50; for Emax: read-out: FXR enzyme activity Efficacy (activation efficacy percent). As to the method: FXR Biochemical Experiment
To test the effect of the compound on the activation of the FXR binding reaction by a Homogenous Proximity Luminescent Amplified Assay (alphascreen).
1. Protein: glutathione-S-transferase-labeled FXR human protein (Invitrogen)
2. Coactivator: biotin-labeled steroid receptor coactivator (Anaspec)
3. Detection reagent: Homogenous Proximity Luminescent Amplified Assay (alphascreen) detection kit (PerkinElmer)
1. Dilution of compounds: The test compound was prepared as a 40 μM DMSO solution, which was then diluted 3-fold to 10 concentration points. The reference compound was prepared as a 400 μM DMSO solution, and then was 1.5-fold diluted to 10 concentration points. The diluted DMSO solution was added to the micro-wells of a 384-well plate at a volume of 150 nl per well.
2. Glutathione-S-transferase-labeled FXR human protein and biotin-labeled steroid receptor coactivator were prepared to a mixed solution at a concentration of 0.4 nM and 30 nM, respectively. The mixed solution was added to the micro-wells of the 384-well plate at a volume of 15 μL per well, and incubated for 1 hour at room temperature.
3. […] The experiment process was protected from light. It was incubated for 1 hour at room temperature.
4. […] The experiment process was protected from light. It was incubated for 1 hour at room temperature.
5. EC50 test: Envision was used to excite at 680 nm and the […] signal at 520-620 nm was read.
6. Data analysis: Data analysis was conducted using Prism 5.0 to calculate the EC50 value of the activation effect of the compound.
A general note: Bead proximity is the source of the signal in Alpha formats.

The mark [1] stands for this setting: highest signal relative to reference compound chenodeoxycholic acid (Examples 1-30).
Where [2] appears, read: highest signal relative to reference compound obeticholic acid (Examples 31-47).

A word on the pEC50: it is the EC50 on a negative log10 scale, so that one unit is a factor of ten. On to `O=C(O)c1cccc(CN2C(=O)C3(CC3)c3cc(OCc4c(-c5c(Cl)cccc5Cl)noc4C4CC4)ccc32)c1` [Compound 1], for which the pEC50 was 6.70. Also, the Emax under setting [1] was found to be 156%.
On the same counts, the results for `O=C(O)c1csc(N2C(=O)C3(CC3)c3cc(OCc4c(-c5c(Cl)cccc5Cl)noc4C4CC4)ccc32)c1` [Compound 23] are 6.51 and 120%.
In the case of `O=C(O)c1ccc(CN2C(=O)C3(CC3)c3cc(OCc4c(-c5c(Cl)cccc5Cl)noc4C4CC4)ccc32)cc1` [Compound 2], the pEC50 is 6.54. Also, the Emax under setting [1] amounted to 155%.
As for `O=C(O)c1cnc(N2C(=O)CCc3cc(OCc4c(-c5c(Cl)cccc5Cl)noc4C4CC4)ccc32)s1` [Compound 38], the negative logarithm of the EC50 (pEC50) was 6.85. Moreover, the Emax under setting [2] worked out at 118%.
`O=C(O)c1ccc(N2C(=O)C3(CC3)c3cc(OCc4c(-c5c(Cl)cccc5Cl)noc4C4CC4)cnc32)cc1` [Compound 30]: the pEC50 was 5.82. In addition, the Emax under setting [1] stood at 228%.
Regarding `O=C(O)c1ccc(N2C(=O)C3(CC3)c3cc(OCc4c(-c5c(Cl)cccc5Cl)noc4C4CC4)ccc32)cc1F` [Compound 10], the negative-log EC50 (pEC50) is 5.99. For the same molecule, the Emax under setting [1] is 312%.
For the molecule `O=C(O)c1ccc(N2C(=O)CCc3cc(OCc4c(-c5c(Cl)cccc5Cl)noc4C4CC4)ccc32)cc1` [Compound 33], the pEC50 is 6.84. For the same molecule, under setting [2], the Emax amounted to 127%.
With `O=C(O)C1CC=C(N2C(=O)C3(CC3)c3cc(OCc4c(-c5c(Cl)cccc5Cl)noc4C4CC4)ccc32)CC1` (stereo not shown) [Compound 18], the pEC50 was 6.18. Moreover, the Emax under setting [1] is 142%.
For `O=C(O)c1ccc(N2C(=O)C3(CC3)c3ccc(OCc4c(-c5c(Cl)cccc5Cl)noc4C4CC4)cc32)cc1` [Compound 12], the pEC50 was 5.75. In addition, the Emax under setting [1] was determined as 33%.
As to `Cn1cc(C(=O)O)c2ccc(N3C(=O)CCc4cc(OCc5c(-c6c(Cl)cccc6Cl)noc5C5CC5)ccc43)cc21` [Compound 31], the pEC50 was 7.37. Moreover, under setting [2], the Emax is 115%.
On to `O=C(O)C12CC(CN3C(=O)C4(CC4)c4cc(OCc5c(-c6c(Cl)cccc6Cl)noc5C5CC5)ccc43)(C1)C2` [Compound 19], for which the pEC50 was 5.59. In addition, the Emax under setting [1] amounted to 95%.
As for `O=C(O)c1ccc(N2C(=O)C3(CC3)c3cc(OCc4c(-c5c(Cl)cccc5Cl)noc4C4CC4)ccc32)cc1` [Compound 6], the negative-log EC50 (pEC50) is 7.00. The Emax under setting [1] came out at 169%.
Consider `COc1cc(N2C(=O)C3(CC3)c3cc(OCc4c(-c5c(Cl)cccc5Cl)noc4C4CC4)ccc32)ccc1C(=O)O` [Compound 9], for which the pEC50 was 5.81. Moreover, the Emax under setting [1] worked out at 229%.
Take `O=C(O)c1ccc(N2C(=O)CCc3cc(OCc4c(-c5c(Cl)cccc5Cl)noc4C4CC4)ccc32)c(Cl)c1` [Compound 36]: the pEC50 is 7.16. Further, under setting [2], the Emax stood at 135%.
In the case of `O=C(O)C1CCC(CN2C(=O)C3(CC3)c3cc(OCc4c(-c5c(Cl)cccc5Cl)noc4C4CC4)ccc32)CC1` (single isomer, unassigned) [Compound 20], the pEC50 was 6.08. Under setting [1], the “FXR enzyme activity Efficacy (activation efficacy percent)” value is 169%.
On to `O=C(O)CCCN1C(=O)C2(CC2)c2cc(OCc3c(-c4c(Cl)cccc4Cl)noc3C3CC3)ccc21` [Compound 16], for which the pEC50 is 5.47. Besides, under setting [1], the Emax was 151%.
With `O=C(O)c1ccc(N2C(=O)C3(CC3)c3cc(OCc4c(-c5c(Cl)cccc5Cl)noc4C4CC4)ccc32)cc1Cl` [Compound 25], the pEC50 was 6.39. In addition, the Emax under setting [1] amounted to 130%.
Take `O=C(O)c1ccc(N2C(=O)CCc3cc(OCc4c(-c5c(Cl)cccc5Cl)noc4C4CC4)ccc32)nc1` [Compound 40]: the pEC50 is 7.24. In addition, the Emax under setting [2] came out at 117%.
For `O=C(O)c1ccc(N2C(=O)C3(CC3)c3cc(OCc4c(-c5ccccc5OC(F)(F)F)noc4C4CC4)ccc32)cc1` [Compound 28], the negative logarithm of the EC50 (pEC50) is 6.19. The Emax under setting [1] stood at 186%.
For `Cn1cc(C(=O)O)c2ccc(N3C(=O)C4(CC4)c4cc(OCc5c(-c6c(Cl)cccc6Cl)noc5C5CC5)ccc43)cc21` [Compound 4], the negative logarithm of the EC50 (pEC50) was 6.70. In addition, the Emax under setting [1] worked out at 256%.
As to `CC1(C)C(=O)N(Cc2cccc(C(=O)O)c2)c2ccc(OCc3c(-c4c(Cl)cccc4Cl)noc3C3CC3)cc21` [Compound 14], the negative logarithm of the EC50 (pEC50) was 6.70. For the same molecule, under setting [1], the Emax came to 136%.
Take `O=C(O)C1CCC(CN2C(=O)C3(CC3)c3cc(OCc4c(-c5c(Cl)cccc5Cl)noc4C4CC4)ccc32)CC1` (single isomer, unassigned) [Compound 21]: the pEC50 is 6.02. Moreover, the “FXR enzyme activity Efficacy (activation efficacy percent)” value under setting [1] was 96%.
In the case of `O=C(O)c1cccc(N2C(=O)CCc3cc(OCc4c(-c5c(Cl)cccc5Cl)noc4C4CC4)ccc32)c1` [Compound 41], the negative-log EC50 (pEC50) was 6.35. For the same molecule, the Emax under setting [2] came to 95%.
Turning to `CC1(C)C(=O)N(c2cccc(C(=O)O)c2)c2ccc(OCc3c(-c4c(Cl)cccc4Cl)noc3C3CC3)cc21` [Compound 15], the negative logarithm of the EC50 (pEC50) is 6.64. Further, the Emax under setting [1] is 152%.
Regarding `N#Cc1cc(C(=O)O)ccc1N1C(=O)CCc2cc(OCc3c(-c4c(Cl)cccc4Cl)noc3C3CC3)ccc21` [Compound 39], the negative logarithm of the EC50 (pEC50) was 7.46. The Emax under setting [2] turned out to be 140%.
As to `O=C(O)c1ccccc1N1C(=O)C2(CC2)c2cc(OCc3c(-c4c(Cl)cccc4Cl)noc3C3CC3)ccc21` [Compound 26], the negative logarithm of the EC50 (pEC50) is 5.19. Further, under setting [1], the Emax is 21%.
Take `O=C(O)c1cc(N2C(=O)CCc3cc(OCc4c(-c5c(Cl)cccc5Cl)noc4C4CC4)ccc32)ccc1F` [Compound 42]: the pEC50 is 6.72. Further, the Emax under setting [2] is 137%.
For `O=C(O)c1cccc(N2C(=O)C3(CC3)c3cc(OCc4c(-c5c(Cl)cccc5Cl)noc4C4CC4)ccc32)c1` [Compound 7], the negative-log EC50 (pEC50) is 6.62. In addition, the Emax under setting [1] was determined as 144%.
For the molecule `O=C(O)c1csc(N2C(=O)CCc3cc(OCc4c(-c5c(Cl)cccc5Cl)noc4C4CC4)ccc32)c1` [Compound 45], the pEC50 is 6.97. Moreover, under setting [2], the Emax stood at 117%.
With `O=C(O)c1ccc(N2C(=O)CCc3cc(OCc4c(-c5c(Cl)cccc5Cl)noc4C4CC4)ccc32)c(F)c1` [Compound 34], the negative-log EC50 (pEC50) is 6.90. The Emax under setting [2] was 140%.
As for `O=C(O)CCN1C(=O)C2(CC2)c2cc(OCc3c(-c4c(Cl)cccc4Cl)noc3C3CC3)ccc21` [Compound 17], the negative-log EC50 (pEC50) is 5.73. The Emax under setting [1] stood at 169%.
For the molecule `O=C(O)c1ccc(N2C(=O)C3(CC3)c3cc(OCc4c(-c5c(Cl)cncc5Cl)noc4C4CC4)ccc32)cc1` [Compound 29], the pEC50 was 6.25. For the same molecule, the Emax under setting [1] was 211%.
Regarding `O=C(O)c1ccc(CN2C(=O)C3(CC3)c3cc(OCc4c(-c5c(Cl)cccc5Cl)noc4C4CC4)ccc32)nc1` [Compound 22], the pEC50 is 6.18. The Emax under setting [1] stood at 200%.
As for `O=C(O)c1ccc(N2C(=O)CCc3cc(OCc4c(-c5c(Cl)cccc5Cl)noc4C4CC4)ccc32)cc1O` [Compound 47], the negative logarithm of the EC50 (pEC50) is 7.70. In addition, under setting [2], the Emax was determined as 153%.
In the same order, the values of `O=C(O)c1cnc(N2C(=O)CCc3cc(OCc4c(-c5c(Cl)cccc5Cl)noc4C4CC4)ccc32)c(F)c1` [Compound 35] are 8.05 and 161%.
